# Laboratory results published in ChEMBL document CHEMBL4229566, “Discovery of ( S)-3-(3-(3,5-Dimethyl-1 H-pyrazol-1-yl)phenyl)-4-(( R)-3-(2-(5,6,7,8-tetrahydro-1,8-naphthyridin-2-yl)ethyl)pyrrolidin-1-yl)butanoic Acid, a Nonpeptidic αvβ6 Integrin Inhibitor for the Inhaled Treatment of Idiopathic Pulmonary Fibrosis” (J Med Chem, 2018).
# Tests used:
# [1] = Protein binding in human blood at 1 ug/ml after 4 hrs by LC-MS/MS analysis; type: ADME, tissue-based; details: at 1 µg/mL, read-out: PB (converted)
# [2] = target: T1, Voltage-gated inwardly rectifying potassium channel KCNH2 (Homo sapiens, UniProt Q12809)
# T1 sequence (Q12809 whole entry): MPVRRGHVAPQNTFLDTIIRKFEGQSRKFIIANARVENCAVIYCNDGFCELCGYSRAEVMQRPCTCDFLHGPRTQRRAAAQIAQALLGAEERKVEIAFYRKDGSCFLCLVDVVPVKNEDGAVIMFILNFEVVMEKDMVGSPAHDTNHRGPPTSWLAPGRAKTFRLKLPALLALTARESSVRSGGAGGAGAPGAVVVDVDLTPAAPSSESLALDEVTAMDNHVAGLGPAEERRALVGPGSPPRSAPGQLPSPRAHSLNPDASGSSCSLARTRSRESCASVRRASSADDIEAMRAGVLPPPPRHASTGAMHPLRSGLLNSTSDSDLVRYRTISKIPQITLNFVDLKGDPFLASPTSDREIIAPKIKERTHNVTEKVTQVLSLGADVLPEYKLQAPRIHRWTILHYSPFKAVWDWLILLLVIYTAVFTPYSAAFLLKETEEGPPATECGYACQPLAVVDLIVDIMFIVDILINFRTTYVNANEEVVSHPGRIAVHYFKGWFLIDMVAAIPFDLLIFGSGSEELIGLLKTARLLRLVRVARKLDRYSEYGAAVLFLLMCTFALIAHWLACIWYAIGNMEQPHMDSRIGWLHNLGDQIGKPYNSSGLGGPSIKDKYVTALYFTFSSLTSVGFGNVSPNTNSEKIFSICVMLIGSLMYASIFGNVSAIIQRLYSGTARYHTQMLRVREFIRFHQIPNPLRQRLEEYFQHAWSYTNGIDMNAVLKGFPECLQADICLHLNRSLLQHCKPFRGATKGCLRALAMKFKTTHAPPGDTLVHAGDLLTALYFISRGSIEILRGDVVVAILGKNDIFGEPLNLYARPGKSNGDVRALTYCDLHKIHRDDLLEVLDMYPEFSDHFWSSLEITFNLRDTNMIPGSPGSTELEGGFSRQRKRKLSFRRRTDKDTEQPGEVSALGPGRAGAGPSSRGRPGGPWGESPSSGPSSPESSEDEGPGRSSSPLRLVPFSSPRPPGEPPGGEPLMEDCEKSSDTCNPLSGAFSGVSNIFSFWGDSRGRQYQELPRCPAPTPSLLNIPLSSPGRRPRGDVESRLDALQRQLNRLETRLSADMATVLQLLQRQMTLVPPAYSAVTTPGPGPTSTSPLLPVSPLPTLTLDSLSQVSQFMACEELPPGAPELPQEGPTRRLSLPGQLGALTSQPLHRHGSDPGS
# Description: Inhibition of human ERG expressed in HEK293 cells by Q-patch assay
# [3] = target: T1, Voltage-gated inwardly rectifying potassium channel KCNH2; details: HEK293 cells expressing hERG
# Description: (§1) Inhibition of human ERG expressed in HEK293 cells by Barracuda automated patch clamp assay
# [4] = buffer, pH 7.4
# [5] = Blood clearance in Wistar Han rat at 1 mg/kg, iv via 30 mins infusion followed by 2 day washout and re-dosed via oral gavage at 3 mg/kg; type: ADME, organism-based; details: whole blood
# [6] = Volume of distribution at steady state in Wistar Han rat at 1 mg/kg, iv via 30 mins infusion followed by 2 day washout and re-dosed via oral gavage at 3 mg/kg; type: ADME, organism-based; details: in vivo, read-out: Vdss
# [7] = Terminal half life in Wistar Han rat at 1 mg/kg, iv dosed via 30 mins infusion; type: ADME, organism-based; details: in vivo, read-out: beta t1/2
# [8] = Cmax in Wistar Han rat at 3 mg/kg, po via gavage; type: ADME, organism-based; set-up: dose 3 mg/kg, route oral; details: in vivo
# [9] = Oral bioavailability in Wistar Han rat at 3 mg/kg via gavage; type: ADME, organism-based; details: in vivo
# [10] = Cmax in Wistar Han rat nebulized with dose level of 0.227 mg/kg; type: ADME, organism-based; set-up: dose 0.227 mg/kg; details: in vivo, inhaled or intranasal
# [11] = Bioavailability in Wistar Han rat nebulized with dose level of 0.227 mg/kg; type: ADME, organism-based; details: in vivo, inhaled or intranasal
# [12] = Clearance in Beagle dog blood at 1 mg/kg, iv dosed via 60 mins infusion followed by 6 days washout and re-dosed via oral gavage at 1 mg/kg; type: ADME, organism-based, Canis lupus familiaris; details: whole blood
# [13] = Volume of distribution at steady state in Beagle dog blood at 1 mg/kg, iv dosed via 60 mins infusion followed by 6 days washout and re-dosed via oral gavage at 1 mg/kg; type: ADME, organism-based, Canis lupus familiaris; details: whole blood, read-out: Vdss
# [14] = Terminal half life in Beagle dog blood at 1 mg/kg, iv dosed via 60 mins infusion followed by 6 days washout and re-dosed via oral gavage at 1 mg/kg; type: ADME, organism-based, Canis lupus familiaris; details: whole blood, read-out: beta t1/2
# [15] = Cmax in Beagle dog at 1 mg/kg, po via gavage; type: ADME, organism-based, Canis lupus familiaris; set-up: dose 1 mg/kg, route oral; details: in vivo
# [16] = Tmax in Beagle dog blood at 1 mg/kg, iv dosed via 60 mins infusion followed by 6 days washout and re-dosed via oral gavage at 1 mg/kg; type: ADME, organism-based, Canis lupus familiaris; details: whole blood
# [17] = Oral bioavailability in Beagle dog at 1 mg/kg via gavage; type: ADME, organism-based, Canis lupus familiaris; details: in vivo
# Rattus norvegicus [18] = experiment: Total renal clearance in Wistar Han rat at 1 mg/kg, iv; type: ADME, organism-based; details: in vivo
# Canis familiaris [19] = experiment: Total renal clearance in Beagle dog at 1 mg/kg, iv; type: ADME, organism-based, Canis lupus familiaris; details: in vivo
# Rattus norvegicus [20] = experiment: Clearance in Wistar Han rat at 1 mg/kg, iv relative to liver blood flow; type: ADME, organism-based; details: in vivo
# Canis familiaris [21] = experiment: Clearance in Beagle dog at 1 mg/kg, iv relative to liver blood flow; type: ADME, organism-based, Canis lupus familiaris; details: in vivo
# [22] = Bioavailability in Wistar Han rat at 1 mg/kg, it measured after 12 hrs post dose; type: ADME, organism-based; details: in vivo, inhaled or intranasal
# [23] = Bioavailability in Wistar Han rat at 0.227 mg/kg administered via nebulisation; type: ADME, organism-based; details: in vivo, inhaled or intranasal
# [24] = Drug uptake in Wistar Han rat lung at 0.227 mg/kg administered via nebulisation after 7 hrs; type: ADME, organism-based; details: inhaled or intranasal, read-out: Drug uptake
# [25] = Drug uptake in Wistar Han rat lung at 0.227 mg/kg administered via nebulisation up to 7 hrs; type: ADME, organism-based; details: in vivo, inhaled_or_intranasal
# [26] = Drug uptake in Wistar Han rat lung at 6.23 mg/kg administered via nebulized inhalation for 60 mins and measured immediately after inhalation period by MALDI-MS analysis; type: ADME, organism-based; details: in vivo, inhaled_or_intranasal, 1 h
# [27] = Drug uptake in Wistar Han rat lung at 6.23 mg/kg administered via nebulized inhalation for 60 mins and measured after 60 mins post inhalation period by MALDI-MS analysis; type: ADME, organism-based; details: in vivo, inhaled_or_intranasal, 1 h
# [28] = Drug uptake in lung of C57Bl/6J mouse at 1.5 mg/kg/day, sc administered via continuous infusion through mini-pumps measured within 24 hrs; type: ADME, organism-based; details: in vivo
# [29] = Drug uptake in lung of C57Bl/6J mouse at 15 mg/kg/day, sc administered via continuous infusion through mini-pumps measured within 24 hrs; type: ADME, organism-based; details: in vivo
# [30] = Protein binding in mouse blood at 1 ug/ml after 4 hrs by rapid equilibrium dialysis and LC-MS/MS analysis; type: ADME, tissue-based; details: at 1 µg/mL, read-out: PB (converted)
# [31] = Protein binding in rat blood at 1 ug/ml after 4 hrs by rapid equilibrium dialysis and LC-MS/MS analysis; type: ADME, tissue-based; details: at 1 µg/mL, read-out: PB (converted)
# [32] = Protein binding in dog blood at 1 ug/ml after 4 hrs by rapid equilibrium dialysis and LC-MS/MS analysis; type: ADME, tissue-based, Canis lupus familiaris; details: at 1 µg/mL, read-out: PB (converted)
# [33] = Protein binding in human blood at 1 ug/ml after 4 hrs by rapid equilibrium dialysis and LC-MS/MS analysis; type: ADME, tissue-based; details: at 1 µg/mL, read-out: PB (converted)
# [34] = Protein binding in dog plasma at 1 ug/ml after 4 hrs by rapid equilibrium dialysis and LC-MS/MS analysis; type: ADME, cell-free, Canis lupus familiaris; details: at 1 µg/mL, read-out: PPB (converted)
# [35] = Protein binding in human plasma at 1 ug/ml after 4 hrs by rapid equilibrium dialysis and LC-MS/MS analysis; type: ADME, cell-free; details: at 1 µg/mL, read-out: PPB (converted)
# [36] = Protein binding in mouse lung at 1 ug/ml after 4 hrs by rapid equilibrium dialysis and LC-MS/MS analysis; type: ADME, tissue-based; details: at 1 µg/mL, read-out: PB (converted)
# [37] = Protein binding in human lung at 1 ug/ml after 4 hrs by rapid equilibrium dialysis and LC-MS/MS analysis; type: ADME, tissue-based; details: at 1 µg/mL, read-out: PB (converted)
# [38] = Protein binding in rat liver at 1 ug/ml after 4 hrs by rapid equilibrium dialysis and LC-MS/MS analysis; type: ADME, tissue-based; details: at 1 µg/mL, read-out: PB (converted)
# [39] = Protein binding in rat kidneys at 1 ug/ml after 4 hrs by rapid equilibrium dialysis and LC-MS/MS analysis; type: ADME, tissue-based; details: rat kidney tissue, at 1 µg/mL, read-out: PB (converted)
# [40] = Clearance in CD mouse liver microsomes at 0.5 uM up to 45 mins by LC-MS/MS analysis; type: ADME, microsome; details: 0.75 h
# [41] = Clearance in Wistar Han rat liver microsomes at 0.5 uM up to 45 mins by LC-MS/MS analysis; type: ADME, microsome; details: 0.75 h
# [42] = Clearance in Beagle dog liver microsomes at 0.5 uM up to 45 mins by LC-MS/MS analysis; type: ADME, Canis lupus familiaris, microsome; details: 0.75 h
# [43] = Clearance in human liver microsomes at 0.5 uM up to 45 mins by LC-MS/MS analysis; type: ADME, microsome; details: 0.75 h
# [44] = Clearance in CD mouse hepatocytes at 0.5 uM up to 60 mins by LC-MS/MS analysis; type: ADME, cell-based, Hepatocyte; details: 1 h
# [45] = Clearance in Wistar Han rat hepatocytes at 0.5 uM up to 60 mins by LC-MS/MS analysis; type: ADME, cell-based, Hepatocyte; details: 1 h
# [46] = Clearance in Beagle dog hepatocytes at 0.5 uM up to 60 mins by LC-MS/MS analysis; type: ADME, cell-based, Canis lupus familiaris, Hepatocyte; details: 1 h
# [47] = Clearance in human hepatocytes at 0.5 uM up to 60 mins by LC-MS/MS analysis; type: ADME, cell-based, Hepatocyte; details: 1 h
# Rattus norvegicus [48] = experiment: Biliary clearance in Wistar Han rat assessed as unchanged parent compound level at 1 mg/kg, iv relative to total blood clearance; type: ADME, organism-based; details: in vivo
# in vivo [49] = details: Wistar Han, rat, po, 3 mg/kg
# in vivo [50] = details: Wistar Han, rat, inhaled or intranasal, 0.227 mg/kg
# Description: Tmax in Wistar Han rat nebulized with dose level of 0.227 mg/kg
# [51] = Stability in solid state form at elevated temperatures and relative humidity conditions; type: physicochemical
# [52] = Stability in saline at pH 4 at 50 degC; type: physicochemical; details: buffer
# [53] = Stability in pH 5 to 7 solution under refrigerated conditions; type: physicochemical; details: buffer
# [54] = Toxicity in rabbit cardiac ventricular wedge assessed as increase in QT interval prolongation at 1 to 3 uM; type: tissue-based, Oryctolagus cuniculus, Cardiac ventricle
# [55] = target: T1, Voltage-gated inwardly rectifying potassium channel KCNH2; remark: listed apart in the source
# Description: as §1
# physchem = details: buffer, pH 7.4, logD
# Integrin alpha-V/beta-6 [56] = target: T2, Integrin alpha-V/beta-6 (Homo sapiens, UniProt P06756+P18564)
# Target sequence in this assay (P06756 31-889 limits assumed): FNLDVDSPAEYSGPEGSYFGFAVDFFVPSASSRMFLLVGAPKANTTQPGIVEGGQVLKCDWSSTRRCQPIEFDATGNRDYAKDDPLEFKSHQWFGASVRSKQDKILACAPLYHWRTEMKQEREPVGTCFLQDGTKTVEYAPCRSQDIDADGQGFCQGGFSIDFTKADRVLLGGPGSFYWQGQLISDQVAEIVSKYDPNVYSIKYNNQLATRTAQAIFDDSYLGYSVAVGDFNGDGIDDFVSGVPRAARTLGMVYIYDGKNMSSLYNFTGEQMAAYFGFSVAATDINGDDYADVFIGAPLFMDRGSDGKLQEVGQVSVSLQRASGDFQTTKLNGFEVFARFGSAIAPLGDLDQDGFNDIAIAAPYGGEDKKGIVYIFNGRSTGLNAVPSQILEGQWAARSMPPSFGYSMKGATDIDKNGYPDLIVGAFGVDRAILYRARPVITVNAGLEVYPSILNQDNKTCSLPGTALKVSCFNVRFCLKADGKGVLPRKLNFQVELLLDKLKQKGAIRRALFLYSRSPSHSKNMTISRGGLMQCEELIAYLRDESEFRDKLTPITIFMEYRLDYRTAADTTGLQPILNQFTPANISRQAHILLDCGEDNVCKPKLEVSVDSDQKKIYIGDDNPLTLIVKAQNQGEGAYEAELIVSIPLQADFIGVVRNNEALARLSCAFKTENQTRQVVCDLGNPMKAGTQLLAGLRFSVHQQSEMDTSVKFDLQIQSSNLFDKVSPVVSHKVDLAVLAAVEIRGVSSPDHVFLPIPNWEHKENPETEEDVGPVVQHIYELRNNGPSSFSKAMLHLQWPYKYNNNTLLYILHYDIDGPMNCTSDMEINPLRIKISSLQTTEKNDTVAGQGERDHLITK
# Target sequence in this assay (P06756 891-1048 limits assumed): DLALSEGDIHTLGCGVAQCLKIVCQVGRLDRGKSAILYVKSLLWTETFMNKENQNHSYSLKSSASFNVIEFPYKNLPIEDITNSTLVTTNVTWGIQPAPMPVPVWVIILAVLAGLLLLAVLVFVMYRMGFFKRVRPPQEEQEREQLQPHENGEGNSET
# Target sequence in this assay (P18564 22-788 limits assumed): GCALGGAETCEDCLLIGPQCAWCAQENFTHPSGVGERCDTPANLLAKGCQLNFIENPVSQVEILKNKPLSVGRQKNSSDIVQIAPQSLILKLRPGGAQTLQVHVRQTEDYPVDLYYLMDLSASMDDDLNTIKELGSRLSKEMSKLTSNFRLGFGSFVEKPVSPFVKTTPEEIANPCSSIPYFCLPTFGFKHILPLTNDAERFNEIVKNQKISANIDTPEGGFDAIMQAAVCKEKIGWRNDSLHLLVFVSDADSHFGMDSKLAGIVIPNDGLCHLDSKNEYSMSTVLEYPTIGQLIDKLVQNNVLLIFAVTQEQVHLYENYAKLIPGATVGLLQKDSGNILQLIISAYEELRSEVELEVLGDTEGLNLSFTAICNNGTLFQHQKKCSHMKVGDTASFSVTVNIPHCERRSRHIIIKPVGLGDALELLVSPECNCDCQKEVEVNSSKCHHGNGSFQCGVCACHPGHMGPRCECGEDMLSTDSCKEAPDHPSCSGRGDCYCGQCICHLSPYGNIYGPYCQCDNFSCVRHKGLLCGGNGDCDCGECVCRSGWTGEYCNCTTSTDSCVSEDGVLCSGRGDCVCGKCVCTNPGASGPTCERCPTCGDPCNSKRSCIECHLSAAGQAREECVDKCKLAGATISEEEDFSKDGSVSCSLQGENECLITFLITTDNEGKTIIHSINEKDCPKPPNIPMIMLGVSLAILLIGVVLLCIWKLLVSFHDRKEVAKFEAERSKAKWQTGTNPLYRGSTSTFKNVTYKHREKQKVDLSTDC
# Integrin alpha-V/beta-6 [57] = target: T2, Integrin alpha-V/beta-6; remark: listed apart in the source
# Description: Binding affinity to human integrin alphaVbeta6 assessed as dissociation half life up to 48 hrs by liquid scintillation counting
structure (smiles),measurement,setting,value
O=C(O)C[C@H](CN1CC[C@@H](CCc2ccc3c(n2)NCCC3)C1)c1cccc(C2CCOC2)c1 (stereo in doubt; 28xI2),"fraction unbound at 4 h, 1 ug/ml",[1],0.17
same,IC50,[2],31.6 µM
same,pIC50,[3],4.4
same,logD,[4],2.58
Cc1cc(C)n(-c2cccc([C@H](CC(=O)O)CN3CC[C@@H](CCc4ccc5c(n4)NCCC5)C3)c2)n1 [GSK-3008348 FREE BASE],"fraction unbound at 4 h, 1 ug/ml",[1],0.08
same,clearance,[5],51 to 60 mL/min/kg
same,Vd,[6],1.8 to 2.3 L/kg
same,half-life,[7],48 to 54 min
same,Cmax,[8],3 to 9 ng/mL
same,bioavailability,[9],< 2%
same,Cmax,[10],30 to 53 ng/mL
same,bioavailability,[11],40 to 63%
same,clearance,[12],25 to 33 mL/min/kg
same,Vd,[13],2.6 to 4.7 L/kg
same,half-life,[14],72 to 324 min
same,Cmax,[15],55 to 76 ng/mL
same,Tmax,[16],15 to 30 min
same,bioavailability,[17],27 to 34%
same,CL,Rattus norvegicus [18],15%
same,CL,Canis familiaris [19],21%
same,CL,Rattus norvegicus [20],70%
same,CL,Canis familiaris [21],50%
same,bioavailability,[22],21%
same,bioavailability,[23],54%
same,concentration at 7 h,[24],10 ng/g
same,Drug uptake,[25],716 ng
same,Drug uptake,[26],Active
same,Drug uptake,[27],Not Active
same,Drug uptake,[28],Active
same,Drug uptake,[29],Active
same,"fraction unbound at 4 h, 1 ug/ml",[30],0.211
same,"fraction unbound at 4 h, 1 ug/ml",[31],0.294
same,"fraction unbound at 4 h, 1 ug/ml",[32],0.228
same,"fraction unbound at 4 h, 1 ug/ml",[33],0.083
same,"fraction unbound at 4 h, 1 ug/ml",[34],0.4
same,"fraction unbound at 4 h, 1 ug/ml",[35],0.036
same,"fraction unbound at 4 h, 1 ug/ml",[36],0.1
same,"fraction unbound at 4 h, 1 ug/ml",[37],0.108
same,"fraction unbound at 4 h, 1 ug/ml",[38],0.085
same,"fraction unbound at 4 h, 1 ug/ml",[39],0.027
same,CLH,[40],3 mL/min/g
same,CLH,[41],0.55 mL/min/g
same,CLH,[42],< 0.53 mL/min/g
same,CLH,[43],0.58 mL/min/g
same,CLH,[44],15.3 mL/min/g
same,CLH,[45],9.45 mL/min/g
same,CLH,[46],< 1.73 mL/min/g
same,CLH,[47],< 0.86 mL/min/g
same,CL,Rattus norvegicus [48],24%
same,Tmax,in vivo [49],30 to 120 min
same,Tmax,in vivo [50],12 min
Cc1cc(C)n(-c2cccc([C@H](CC(=O)O)CN3CC[C@@H](CCc4ccc5c(n4)NCCC5)C3)c2)n1.Cl [GSK-3008348],Stability,[51],4 weeks
same,Stability,[52],<= 6 weeks
same,Stability,[53],6 weeks
O=C(O)C[C@H](CN1CC[C@@H](CCc2ccc3c(n2)NCCC3)C1)c1cccc(C2CC2)c1,Activity,[54],Dose-dependent effect
O=C(O)C[C@H](CN1CC[C@@H](CCc2ccc3c(n2)NCCC3)C1)c1cccc(-n2cnnc2)c1,"fraction unbound at 4 h, 1 ug/ml",[1],0.46
same,IC50,[55],> 50.1 µM
same,IC50,[2],> 31.6 µM
same,logD,physchem,1.05
N=C(N)Nc1cccc(C(=O)NCC(=O)NC(CC(=O)O)c2cc(Cl)cc(Cl)c2)c1 (stereo unspecified),Ki,Integrin alpha-V/beta-6 [56],0.002 µM
same,T1/2,Integrin alpha-V/beta-6 [57],5 min
